From patent publication USRE40387E1, “Pharmaceutical compositions, dosage forms and methods for oral administration of epothilones” (Bristol-Myers Squibb Company, priority 2001, dated 2008)
Values joined by “and” are separate entries in the source; they are usually repeats but may differ in a detail not shown here. Identical values can stand only once. Like-named read-outs stand apart in the source and are kept apart here.

Legend:
[1] = Pharmacokinetics and absolute oral bioavailability of formulations in beagle dogs; format: in vivo, adult male beagle dogs; details: for AUC(0-t) / Cmax / Tmax: male, beagle, dog, plasma; for AUC(0-t): T = 24 h; for Cmax / Tmax / CMAX, mean / TMAX, median: n = 3; for Tmax: read-out: TMAX, median
Procedure: The absolute oral bioavailability of various formulations of Compound (A) in adult male beagle dogs (n=4) was evaluated. Compound (A) was given as a 10 min intravenous (IV) infusion (0.5 mg/kg), a buffered oral solution (2 mg/kg), and a buffered oral suspension (1 mg/kg).
The design was a single-dose, four-treatment, four-period, non-randomized, crossover design. Compound (A) was given to four adult male beagle dogs as a 10 min IV infusion (0.5 mg/kg), a buffered oral solution (2 mg/kg), or a buffered oral suspension (2 mg/kg). […] Upon reconstitution, the pH of the buffered suspension was about 8.0 and the strength was approximately 0.75 mg/mL. Due to cumulative toxicity the dose for the oral suspension scheduled during the third treatment period was reduced from 2 mg/kg to 1 mg/kg. Furthermore, the fourth treatment was not administered for lack of an evaluable formulation. The wash-out period between treatments was at least 7 days. Serial blood samples were collected over 24 h after dose administration and concentrations of Compound (A) and Compound (B) were determined using a LC/MS/MS assay with a standard curve range of 2-500 ng/mL for both analytes. The LC/MS/MS assay was the same as used in Example 1.
Analytical runs consisted of standard, quality control (QC), and study samples. The plasma volume used for analysis was 0.2 mL and the standard curve range was 2 to 500 ng/mL for both analytes, defining the lower limit of quantitation (LLQ) and upper-limit of quantitation (ULQ), respectively. If the predicted concentration of a study sample was less than that of the lowest standard, the value of the predicted concentration was reported as <LLQ. […]. If the predicted concentration was greater than that of the highest standard, the result of that analysis was reported as >ULQ and an appropriate volume of that sample was diluted with blank plasma and reanalyzed.
Four adult male dogs with venous access for drug administration and blood collection were selected for the study. The dogs were acclimated for at least one week prior to study initiation and were housed in individual steel cages. Animals were identified by a unique number and by a tag attached to the cage. The dogs were offered drinking water ad libitum, and fed once a day with standard canine diet except for an overnight (about 12 h) fast prior to dosing which was continued until 4 h after dosing. Fifteen (15) minutes prior to administration of the buffered oral suspension, the dogs were pretreated with pentagastrin (6 :g/kg; intramuscularly). Pentagastrmn pretreatment was used only for the oral suspension leg. The IV dose was administered as a constant-rate infusion over a period of 10 min using a calibrated infusion pump. The oral solution and suspension doses were administered by gavage and the gavage tubes were rinsed with 20 mL of water.
Serial blood samples (3 mL) were collected at predose, and 10 min (IV only; end-of-infusion), 15 min, 20 min (IV only), 30 min, and 45 min, and 1 h, 1.5 h, 2 h, 4 h, 6 h, 8 h, 12 h, and 24 h after dosing. Blood samples were collected into Vacutainer® tubes containing K3-EDTA as the anticoagulant and the contents of each tube were mixed by gently inverting the tube. The blood samples were then placed immediately on chipped ice. Plasma was obtained within 30 min of collection by centrifuging the tubes at approximately 4° C. and 2000×g for 5 min. Plasma samples were stored at or below −20° C. until analyzed for the concentrations Compound (A) and Compound (B).
The peak plasma concentration (CMAX) and the time to reach peak concentration (TMAX) were recorded directly from experimental observations. The area under the plasma concentration-time curve from time zero to T (AUC(0−T)), where T is the time of the last measurable plasma concentration, was calculated using the trapezoidal rule (See, M. Gibaldi, et al., Pharmacokinetics, 2nd ed., New York, N.Y., Marcel Decker, p. 445-91982). […]

[2] = Kinetics in single dose IV toxicology study in dogs; format: in vivo; details: for AUC / Cmax: both sexes, dog, plasma; for Cmax: read-out: mean CMAX of Compound (B) in plasma; for mean CMAX in plasma: combined across gender
Procedure: The kinetics of Compound (A) were also evaluated as part of a single dose IV toxicology study. Compound (A) was given as an IV infusion (ca. 15 min) at doses of 0.5 and 5 mg/kg to 2 dogs/gender/dose. […] Blood samples were obtained over a period of 48 h after dosing, and plasma concentrations of Compound (A) and Compound (B) were determined using the LC/MS/MS assay with a standard curve range of 2-500 ng/mL for both analytes. […] T-HALF, MRT(INF), CLT, and VSS were not determined due to the limited sampling used in the study.

[3] = Toxicokinetics in single dose IV toxicology study in rats; format: in vivo
Procedure: The toxicokinetics of Compound (A) were evaluated in a single dose IV toxicology study in rats. […] Compound (A) was given as an IV infusion (ca. 3 min) at doses of 10, 25, and 30 mg/kg to 3 rats/gender/dose. Serial blood samples were obtained over a period of 24 h after dosing, and plasma concentrations of Compound (A) and Compound (B) were determined using an LC/MS/MS assay with a standard curve range of 2-500 ng/mL for both analytes. At a dose of 10, 25, and 30 mg/kg, the mean CMAX values of Compound (A) in male rats were 6422, 19066, and 24414 ng/mL, respectively; in female rats, the mean CMAX values were 8384, 20524, and 25054 ng/mL, respectively. […] For doses in a ratio of 1:2.5:3 proportion, the mean CMAX values of Compound (A) for males and females were in the ratio of 1:3.0:3.8 and 1:2.5:3.0, respectively, and the AUC values were in the ratio of 1:3.1:4.9 and 1:3.5:4.2, respectively. T-HALF, mean residence time over the time interval zero to infinity MRT(INF), total body clearance (CLT), and VSS were not determined due to the limited sampling used in the study.

[4] = dogs, IV Compound (A) 0.5 mg/kg
[5] = dogs, buffered oral solution of Compound (A) 2 mg/kg
[6] = IV infusion of Compound (A) 0.5 mg/kg
[7] = IV infusion of Compound (A) 5 mg/kg
[8] = two dogs with both IV and oral solution data
[9] = female rats, IV infusion 10 mg/kg
[10] = female rats, IV infusion 25 mg/kg
[11] = female rats, IV infusion 30 mg/kg
[12] = male rats, IV infusion 10 mg/kg
[13] = male rats, IV infusion 25 mg/kg
[14] = male rats, IV infusion 30 mg/kg

CC1=NC(/C=C/[C@@H]2C[C@@H](O)[C@](C)(O)CCC[C@H](C)[C@H](O)[C@@H](C)C(=O)C(C)(C)[C@@H](O)CC(=O)N2)CS1 (some centres unmarked) [Compound (B)]
mean plasma concentration ([1]; dogs, IV Compound (A) 0.5 mg/kg, 0.17 h): 0 ng/mL
mean plasma concentration ([1]; dogs, IV Compound (A) 0.5 mg/kg, 0.75 h): 0 ng/mL
mean plasma concentration ([1]; dogs, IV Compound (A) 0.5 mg/kg, 1 h): 0 ng/mL
mean plasma concentration ([1]; dogs, IV Compound (A) 0.5 mg/kg, 1.5 h): 0 ng/mL
mean plasma concentration ([1]; dogs, IV Compound (A) 0.5 mg/kg, 2 h): 0 ng/mL
mean plasma concentration ([1]; dogs, IV Compound (A) 0.5 mg/kg, 4 h): 0 ng/mL
mean plasma concentration ([1]; dogs, IV Compound (A) 0.5 mg/kg, 6 h): 0 ng/mL
mean plasma concentration ([1]; dogs, IV Compound (A) 0.5 mg/kg, 8 h): 0 ng/mL
mean plasma concentration ([1]; dogs, IV Compound (A) 0.5 mg/kg, 12 h): 0 ng/mL
mean plasma concentration ([1]; dogs, IV Compound (A) 0.5 mg/kg, 24 h): 0 ng/mL
mean plasma concentration ([1]; dogs, buffered oral solution of Compound (A) 2 mg/kg, 0.25 h): 4.1 ng/mL
mean plasma concentration ([1]; dogs, buffered oral solution of Compound (A) 2 mg/kg, 0.5 h): 21.3 ng/mL
mean plasma concentration ([1]; dogs, buffered oral solution of Compound (A) 2 mg/kg, 0.75 h): 27.2 ng/mL
mean plasma concentration ([1]; dogs, buffered oral solution of Compound (A) 2 mg/kg, 1 h): 23.8 ng/mL
mean plasma concentration ([1]; dogs, buffered oral solution of Compound (A) 2 mg/kg, 2 h): 8.4 ng/mL
mean plasma concentration ([1]; dogs, buffered oral solution of Compound (A) 2 mg/kg, 4 h): 2.4 ng/mL
mean plasma concentration ([1]; dogs, buffered oral solution of Compound (A) 2 mg/kg, 6 h): 0.8 ng/mL
mean plasma concentration ([1]; dogs, buffered oral solution of Compound (A) 2 mg/kg, 8 h): 0 ng/mL
mean plasma concentration ([1]; dogs, buffered oral solution of Compound (A) 2 mg/kg, 12 h): 0 ng/mL
mean plasma concentration ([1]; dogs, buffered oral solution of Compound (A) 2 mg/kg, 24 h): 0 ng/mL
AUC(0-t) [1, 4]: 0.69 ng·h/mL
Cmax [1, 4]: 3.8 ng/mL
Tmax [1, 4]: 10.2 min
AUC(0-t) [1, 5]: 45.2 ng·h/mL
Cmax [1, 5]: 27.2 ng/mL
Tmax [1, 5]: 45 min
AUC [2, 6]: 55 ng·h/mL
Cmax [2, 6]: 95.6 ng/mL
AUC [2, 7]: 1110 ng·h/mL
Cmax [2, 7]: 984 ng/mL
AUC ([3]; both sexes, rat, plasma, rats, IV Compound (A) 10-30 mg/kg, read-out: AUC of Compound (B) across gender and dose groups): 222 to 2000 ng·h/mL
Cmax ([3]; both sexes, rat, plasma, rats, IV Compound (A) 10-30 mg/kg, read-out: CMAX of Compound (B) across gender and dose groups): 499 to 1790 ng/mL

C/C(=C\c1csc(C)n1)[C@@H]1C[C@@H]2O[C@]2(C)CCC[C@H](C)[C@H](O)[C@@H](C)C(=O)C(C)(C)[C@@H](O)CC(=O)N1 (relative stereo) [Compound (A), [1S-[1R*,3R*(E),7R*,10S*,11R*,12R*,16S*]]-7,11-dihydroxy 8,8,10,12,16-pentamethyl-3-[1-methyl-2-(2-methyl-4-thiazolyl)ethenyl-4-aza-17-oxobicyclo[14.1.0]heptadecane-5,9-dione]
CMAX, mean [1, 4]: 1120 (189) ng/mL
TMAX, median [1, 4]: 10.2 min
AUC(0−T), mean (SD) [1, 5]: 560 (159) h.ng./mL
CMAX, mean [1, 5]: 365 (40.9) ng/mL
TMAX, median [1, 5]: 30 min
mean AUC after oral solution higher than dose-normalized mean AUC of oral toxicity study ([1]; dogs, oral solution 1.3 mL/kg vs 0.4 mL/kg): approximately 2 fold
absolute oral bioavailability, individual dogs [1, 8]: 48.3% and 30.6%
absolute oral bioavailability, mean value [1, 8]: 39.5%
mean AUC in plasma [2, 6]: 316 ng·h/mL
mean CMAX in plasma [2, 6]: 218 ng/mL
mean AUC in plasma [2, 7]: 6925 ng·h/mL
mean CMAX in plasma [2, 7]: 5118 ng/mL
mean CMAX [3, 9]: 8384 ng/mL
mean area under the concentration vs. time curve (AUC) [3, 9]: 8156 ng·h/mL
mean CMAX [3, 10]: 20524 ng/mL
mean area under the concentration vs. time curve (AUC) [3, 10]: 28476 ng·h/mL
mean CMAX [3, 11]: 25054 ng/mL
mean area under the concentration vs. time curve (AUC) [3, 11]: 34563 ng·h/mL
mean CMAX [3, 12]: 6422 ng/mL
mean area under the concentration vs. time curve (AUC) [3, 12]: 3864 ng·h/mL
mean CMAX [3, 13]: 19066 ng/mL
mean area under the concentration vs. time curve (AUC) [3, 13]: 11980 ng·h/mL
mean CMAX [3, 14]: 24414 ng/mL
mean area under the concentration vs. time curve (AUC) [3, 14]: 19269 ng·h/mL
